Reference: PubChem BioAssay AID330 (DTP/NCI, 2004)
Where “and” joins values, the source holds several entries; their conditions need not be identical. Equal entries are not always repeated. Inconclusive results and toxic doses are left out.

Tested on: P388 leukemia ip, CD2F1 mice, survival T/C
Assay: NCI In Vivo Anticancer Drug Screen. Data for tumor model P388 Leukemia (intraperitoneal) in CD2F1 (CDF1) mice
Conditions: endpoint: median survival time, higher = longer survival
How it was run: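 Mice carrying the transplanted tumor received test compound or vehicle. Survival was recorded in each group, and the value is the treated-group measurement divided by that of the vehicle-treated control group.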

Compound: O=C1NC2(CCCCC2)C(=O)N1CCN(CCCl)CCCl
- T/C (dose: 0.62 mg/kg/injection, schedule: Q01DX005 (iv), vehicle: other): 108 % of control
- T/C (dose: 0.75 mg/kg/injection, schedule: Q01DX009 (ip), vehicle: saline): 112 % of control and 114 % of control and 122 % of control
- T/C (dose: 1.25 mg/kg/injection, schedule: Q01DX001 (iv), vehicle: other): 112 % of control
- T/C (dose: 1.25 mg/kg/injection, schedule: Q01DX001 (oral), vehicle: other): 101 % of control
- T/C (dose: 1.25 mg/kg/injection, schedule: Q01DX005 (iv), vehicle: other): 116 % of control
- T/C (dose: 1.25 mg/kg/injection, schedule: Q01DX009 (ip), vehicle: saline with Tween-80): 124 % of control
- T/C (dose: 1.5 mg/kg/injection, schedule: Q01DX005 (ip), vehicle: saline): 118 % of control and 119 % of control
- T/C (dose: 1.5 mg/kg/injection, schedule: Q01DX005 (ip), vehicle: suspension in saline): 119 % of control
- T/C (dose: 1.5 mg/kg/injection, schedule: Q01DX005 (iv), vehicle: suspension in saline): 101 % of control
- T/C (dose: 1.5 mg/kg/injection, schedule: Q01DX009 (ip), vehicle: Klucel (hydroxypropylcellulose) (HPC)): 164 % of control
- T/C (dose: 1.5 mg/kg/injection, schedule: Q01DX009 (ip), vehicle: other): 120 % of control
- T/C (dose: 2.5 mg/kg/injection, schedule: Q01DX001 (ip), vehicle: other): 121 % of control
- T/C (dose: 2.5 mg/kg/injection, schedule: Q01DX001 (iv), vehicle: other): 109 % of control
- T/C (dose: 2.5 mg/kg/injection, schedule: Q01DX005 (iv), vehicle: clinical formulation): 115 % of control and 121 % of control
- T/C (dose: 2.5 mg/kg/injection, schedule: Q01DX005 (iv), vehicle: other): 109 % of control
- T/C (dose: 2.5 mg/kg/injection, schedule: Q01DX005 (oral), vehicle: other): 100 % of control
- T/C (dose: 2.5 mg/kg/injection, schedule: Q01DX009 (ip), vehicle: clinical formulation): 152 % of control and 154 % of control and 180 % of control
- T/C (dose: 2.5 mg/kg/injection, schedule: Q01DX009 (ip), vehicle: other): 151 % of control
- T/C (dose: 2.5 mg/kg/injection, schedule: Q01DX009 (ip), vehicle: saline with Tween-80): 167 % of control
- T/C (dose: 2.5 mg/kg/injection, schedule: Q01DX009 (oral), vehicle: other): 109 % of control
- T/C (dose: 3.0 mg/kg/injection, schedule: Q01DX005 (iv), vehicle: suspension in saline): 105 % of control
- T/C (dose: 3.0 mg/kg/injection, schedule: Q01DX009 (ip), vehicle: Klucel (hydroxypropylcellulose) (HPC)): 166 % of control and 169 % of control
- T/C (dose: 3.0 mg/kg/injection, schedule: Q01DX009 (ip), vehicle: saline with Tween-80): 163 % of control
- T/C (dose: 3.0 mg/kg/injection, schedule: Q01DX009 (oral), vehicle: Klucel (hydroxypropylcellulose) (HPC)): 108 % of control
- T/C (dose: 3.0 mg/kg/injection, schedule: Q01DX009 (oral), vehicle: saline): 102 % of control
- T/C (dose: 5.0 mg/kg/injection, schedule: Q01DX001 (iv), vehicle: other): 105 % of control
- T/C (dose: 5.0 mg/kg/injection, schedule: Q01DX001 (oral), vehicle: other): 99 % of control
- T/C (dose: 5.0 mg/kg/injection, schedule: Q01DX005 (iv), vehicle: clinical formulation): 156 % of control
- T/C (dose: 5.0 mg/kg/injection, schedule: Q01DX005 (iv), vehicle: other): 113 % of control
- T/C (dose: 5.0 mg/kg/injection, schedule: Q01DX005 (oral), vehicle: other): 99 % of control
- T/C (dose: 5.0 mg/kg/injection, schedule: Q01DX009 (ip), vehicle: other): 175 % of control
- T/C (dose: 5.0 mg/kg/injection, schedule: Q01DX009 (oral), vehicle: other): 114 % of control
- T/C (dose: 6.0 mg/kg/injection, schedule: Q01DX005 (ip), vehicle: suspension in saline): 164 % of control
- T/C (dose: 6.0 mg/kg/injection, schedule: Q01DX005 (iv), vehicle: suspension in saline): 108 % of control
- T/C (dose: 6.0 mg/kg/injection, schedule: Q01DX009 (ip), vehicle: other): 157 % of control
- T/C (dose: 6.0 mg/kg/injection, schedule: Q01DX009 (oral), vehicle: Klucel (hydroxypropylcellulose) (HPC)): 102 % of control
- T/C (dose: 6.0 mg/kg/injection, schedule: Q01DX009 (oral), vehicle: saline): 108 % of control
- T/C (dose: 6.25 mg/kg/injection, schedule: Q01DX009 (oral), vehicle: Klucel (hydroxypropylcellulose) (HPC)): 112 % of control and 113 % of control
- T/C (dose: 8.0 mg/kg/injection, schedule: Q01DX001 (ip), vehicle: suspension in saline): 108 % of control and 116 % of control
- T/C (dose: 10.0 mg/kg/injection, schedule: Q01DX001 (iv), vehicle: other): 116 % of control
- T/C (dose: 10.0 mg/kg/injection, schedule: Q01DX001 (oral), vehicle: other): 107 % of control
- T/C (dose: 10.0 mg/kg/injection, schedule: Q01DX005 (iv), vehicle: clinical formulation): 104 % of control
- T/C (dose: 10.0 mg/kg/injection, schedule: Q01DX005 (oral), vehicle: other): 112 % of control
- T/C (dose: 10.0 mg/kg/injection, schedule: Q01DX009 (ip), vehicle: clinical formulation): 170 % of control
- T/C (dose: 10.0 mg/kg/injection, schedule: Q01DX009 (ip), vehicle: saline with Tween-80): 121 % of control
- T/C (dose: 10.0 mg/kg/injection, schedule: Q01DX009 (oral), vehicle: other): 116 % of control
- T/C (dose: 12.0 mg/kg/injection, schedule: Q01DX005 (ip), vehicle: saline): 163 % of control and 167 % of control
- T/C (dose: 12.0 mg/kg/injection, schedule: Q01DX009 (ip), vehicle: Klucel (hydroxypropylcellulose) (HPC)): 121 % of control
- T/C (dose: 12.0 mg/kg/injection, schedule: Q01DX009 (ip), vehicle: other): 168 % of control
- T/C (dose: 12.0 mg/kg/injection, schedule: Q01DX009 (oral), vehicle: Klucel (hydroxypropylcellulose) (HPC)): 117 % of control
- T/C (dose: 12.0 mg/kg/injection, schedule: Q01DX009 (oral), vehicle: other): 100 % of control
- T/C (dose: 12.0 mg/kg/injection, schedule: Q01DX009 (oral), vehicle: saline): 110 % of control
- T/C (dose: 12.5 mg/kg/injection, schedule: Q01DX009 (oral), vehicle: Klucel (hydroxypropylcellulose) (HPC)): 115 % of control and 120 % of control
- T/C (dose: 15.0 mg/kg/injection, schedule: Q01DX009 (ip), vehicle: Klucel (hydroxypropylcellulose) (HPC)): 100 % of control
- T/C (dose: 16.0 mg/kg/injection, schedule: Q01DX001 (ip), vehicle: suspension in saline): 104 % of control
- T/C (dose: 20.0 mg/kg/injection, schedule: Q01DX001 (ip), vehicle: other): 151 % of control
- T/C (dose: 20.0 mg/kg/injection, schedule: Q01DX001 (iv), vehicle: other): 122 % of control
- T/C (dose: 20.0 mg/kg/injection, schedule: Q01DX001 (oral), vehicle: other): 104 % of control
- T/C (dose: 20.0 mg/kg/injection, schedule: Q01DX005 (oral), vehicle: other): 109 % of control
- T/C (dose: 24.0 mg/kg/injection, schedule: Q01DX005 (ip), vehicle: saline): 181 % of control
- T/C (dose: 24.0 mg/kg/injection, schedule: Q01DX005 (iv), vehicle: suspension in saline): 117 % of control
- T/C (dose: 24.0 mg/kg/injection, schedule: Q01DX009 (oral), vehicle: Klucel (hydroxypropylcellulose) (HPC)): 122 % of control
- T/C (dose: 24.0 mg/kg/injection, schedule: Q01DX009 (oral), vehicle: other): 107 % of control
- T/C (dose: 24.0 mg/kg/injection, schedule: Q01DX009 (oral), vehicle: saline): 113 % of control
- T/C (dose: 25.0 mg/kg/injection, schedule: Q01DX001 (ip), vehicle: Klucel (hydroxypropylcellulose) (HPC)): 168 % of control
- T/C (dose: 25.0 mg/kg/injection, schedule: Q01DX001 (ip), vehicle: saline): 175 % of control
- T/C (dose: 32.0 mg/kg/injection, schedule: Q01DX001 (ip), vehicle: suspension in saline): 101 % of control
- T/C (dose: 32.0 mg/kg/injection, schedule: Q01DX001 (oral), vehicle: suspension in saline): 100 % of control
- T/C (dose: 40.0 mg/kg/injection, schedule: Q01DX001 (ip), vehicle: other): 181 % of control
- T/C (dose: 40.0 mg/kg/injection, schedule: Q01DX001 (oral), vehicle: other): 101 % of control
- T/C (dose: 40.0 mg/kg/injection, schedule: Q01DX005 (oral), vehicle: other): 118 % of control
- T/C (dose: 40.0 mg/kg/injection, schedule: Q01DX009 (oral), vehicle: other): 115 % of control
- T/C (dose: 48.0 mg/kg/injection, schedule: Q01DX009 (oral), vehicle: Klucel (hydroxypropylcellulose) (HPC)): 119 % of control
- T/C (dose: 48.0 mg/kg/injection, schedule: Q01DX009 (oral), vehicle: other): 103 % of control
- T/C (dose: 48.0 mg/kg/injection, schedule: Q01DX009 (oral), vehicle: saline): 119 % of control
- T/C (dose: 50.0 mg/kg/injection, schedule: Q01DX009 (oral), vehicle: Klucel (hydroxypropylcellulose) (HPC)): 155 % of control
- T/C (dose: 64.0 mg/kg/injection, schedule: Q01DX001 (ip), vehicle: saline): 163 % of control
- T/C (dose: 64.0 mg/kg/injection, schedule: Q01DX001 (ip), vehicle: suspension in saline): 101 % of control
- T/C (dose: 64.0 mg/kg/injection, schedule: Q01DX001 (oral), vehicle: saline): 99 % of control
- T/C (dose: 64.0 mg/kg/injection, schedule: Q01DX001 (oral), vehicle: suspension in saline): 106 % of control and 108 % of control
- T/C (dose: 96.0 mg/kg/injection, schedule: Q01DX009 (oral), vehicle: other): 107 % of control
- T/C (dose: 100.0 mg/kg/injection, schedule: Q01DX009 (oral), vehicle: Klucel (hydroxypropylcellulose) (HPC)): 120 % of control
- T/C (dose: 128.0 mg/kg/injection, schedule: Q01DX001 (oral), vehicle: saline): 99 % of control
- T/C (dose: 128.0 mg/kg/injection, schedule: Q01DX001 (oral), vehicle: suspension in saline): 102 % of control and 109 % of control
- T/C (dose: 256.0 mg/kg/injection, schedule: Q01DX001 (oral), vehicle: saline): 107 % of control
- T/C (dose: 256.0 mg/kg/injection, schedule: Q01DX001 (oral), vehicle: suspension in saline): 103 % of control and 105 % of control
